This is an account of results in patent US20260125368A1, “SALT OF GLP-1R AGONIST, PREPARATION METHOD THEREFOR AND USE THEREOF” (MINDRANK AI LTD., priority 2022, published 2026).

The nature of this data set: Hygroscopic behavior test by dynamic vapor sorption (DVS). The format is physicochemical. To be noted: 25° C.; for Did the crystal form change before and after the test?: 0-90% RH; for Hygroscopicity / 80% RH sample weight change (%): 80% RH; for 80% RH sample weight change (%): adsorption 0-90% RH. An excerpt: The experimental method for characterizing an acid salt or a base salt of compound I by dynamic vapor sorption (DVS) was as follows: A small amount of a powder of the acid salt or the base salt of compound I was taken and placed into a precise sample tray that matches the instrument. After the sample was loaded, the sample tray was sent into the instrument for analysis. In the present disclosure, the instrument model used in the dynamic vapor sorption analysis was Intrinsic PLUS; the experimental parameter was set as follows: a constant temperature of 25° C. was set; the mass percent change rate per unit time (dm/dt)=0.02%/min was used as a criterion for determining that a balance is achieved; the program humidity change cycle was set as follows: the initial relative humidity was 0%, and the endpoint relative humidity was 90%.
The hygroscopic behavior of a compound affects the production, storage, stability, and quality of the drug.

Structures are written as SMILES.

Regarding `O=C(O)c1ccc2nc(CN3CCC(Oc4cccc(COc5ccc(Cl)cc5F)n4)CC3)n(C[C@@H]3CCO3)c2c1` [Free form of compound I-1, (S)-2-((4-((6-((4-chloro-2-fluorophenoxy)methyl)pyridin-2-yl)oxy)piperidin-1-yl)methyl)-1-(oxetan-2-ylmethyl)-1H-benzo[d]imidazole-6-carboxylic acid], the “Did the crystal form change before and after the test?” value was “no solid form change was observed and No”; the Hygroscopicity result is listed as “slightly hygroscopic”; the “80% RH sample weight change (%)” value amounted to 0.90%.

As to `N#Cc1ccc(OCc2cccc(OC3CCN(Cc4nc5ccc(C(=O)O)cc5n4C[C@@H]4CCO4)CC3)n2)c(F)c1` [Free form of compound I-2, (S)-2-((4-((6-((4-cyano-2-fluorophenoxy)methyl)pyridin-2-yl)oxy)piperidin-1-yl)methyl)-1-(oxetan-2-ylmethyl)-1H-benzo[d]imidazole-6-carboxylic acid], the “Did the crystal form change before and after the test?” value is “no solid form change was observed and No”; the Hygroscopicity result is listed as “slightly hygroscopic”; the “80% RH sample weight change (%)” value was determined as 0.71%.
